# Source: patent publication US20260020570A1, “HERBICIDAL COMBINATIONS AND A METHOD FOR CONTROLLING UNDESIRED VEGETATION” (UPL Mauritius Limited, priority 2022, published 2026)
# System: Eleusine indica
# Test: Post-emergence herbicidal efficacy of L-glufosinate ammonium, additional herbicides and their combinations; expected efficacy by the Colby method
# Assay type: in vivo
# Method: The following products were used for testing the weed control efficacy of present herbicidal combinations.
# Evaluation of Post-Emergence Herbicidal Activity:
# Methodology: Trials were carried out to evaluate the efficacy of the combinations comprising L-glufosinate ammonium and the additional herbicides on Eleusine genus weeds.
# All treatments were in 4 replications per treatment with a spray volume of about 150 L/ha.
# Efficacy Evaluation: The expected efficacy of a combination comprising L-glufosinate ammonium and additional herbicides was calculated using the well-established Colby method.
# In the Colby method, the expected (or predicted) response of a combination of herbicides is calculated by taking the product of the observed response for each individual component of the combination when applied alone, divided by 100, and subtracting this value from the sum of the observed response for each component when applied alone. An unexpected enhancement in efficacy of the combination is then determined by comparing the observed response of the combination to the expected (or predicted) response as calculated from the observed response of each individual component alone. […] The Colby method requires only a single dose of each herbicide applied alone and the mixture of both doses. The formula used to calculate the expected efficacy (EE) which was compared with the observed efficacy (OE) to determine the efficacy of the present disclosure is explained hereinbelow:
# The expected efficacy for a combination of two active ingredients is as follows:
# [formula] • wherein, • A=Observed efficacy of active ingredient A at the same concentration as used in the mixture. • B=Observed efficacy of the active ingredient B at the same concentration as used in the mixture.
smiles,measurement,setting,value
"C[N+](C)(C)CCO.O=C([O-])COc1ccc(Cl)cc1Cl [2,4-D choline]","Observed efficacy (%) of 2,4-D choline (228 g a.i./ha)","7 DAA, Table 18",10%
same,"Observed efficacy (%) of 2,4-D choline (228 g a.i./ha)","14 DAA, Table 18",10%
same,"Observed efficacy (%) of 2,4-D choline (228 g a.i./ha)","21 DAA, Table 18",10%
same,"Observed efficacy (%) of 2,4-D choline (228 g a.i./ha)","28 DAA, Table 18",5%
COc1c(Cl)ccc(Cl)c1C(=O)O [Dicamba],Observed efficacy (%) of Dicamba (228 g a.i./ha),"28 DAA, Table 14",5%
Cc1ccc2c(c1)[C@H](Nc1nc(N)nc(C(C)F)n1)[C@@H](C)C2 (some centres unmarked) [Indaziflam],Observed efficacy (%) of Indaziflam (50 g a.i./ha),"7 DAA, Table 9",60%
same,Observed efficacy (%) of Indaziflam (50 g a.i./ha),"14 DAA, Table 9",80%
same,Observed efficacy (%) of Indaziflam (50 g a.i./ha),"21 DAA, Table 9",85%
same,Observed efficacy (%) of Indaziflam (50 g a.i./ha),"28 DAA, Table 9",85%
CS(=O)(=O)c1cc(C(F)(F)F)ccc1C(=O)c1cnoc1C1CC1 [Isoxaflutole],Observed efficacy (%) of Isoxaflutole (60 g a.i./ha),"7 DAA, Table 10",40%
same,Observed efficacy (%) of Isoxaflutole (60 g a.i./ha),"14 DAA, Table 10",75%
same,Observed efficacy (%) of Isoxaflutole (60 g a.i./ha),"21 DAA, Table 10",85%
CP(=O)(O)CC[C@H](N)C(=O)O.N [L-glufosinate ammonium],Observed efficacy (%) of L-glufosinate ammonium (150 g a.i./ha),"3 DAA, Table 15",40%
same,Observed efficacy (%) of L-glufosinate ammonium (150 g a.i./ha),"7 DAA, Table 8",35%
same,Observed efficacy (%) of L-glufosinate ammonium (150 g a.i./ha),"7 DAA, Table 9",35%
same,Observed efficacy (%) of L-glufosinate ammonium (150 g a.i./ha),"7 DAA, Table 10",35%
same,Observed efficacy (%) of L-glufosinate ammonium (150 g a.i./ha),"7 DAA, Table 11",35%
same,Observed efficacy (%) of L-glufosinate ammonium (150 g a.i./ha),"7 DAA, Table 12",40%
same,Observed efficacy (%) of L-glufosinate ammonium (150 g a.i./ha),"7 DAA, Table 13",35%
same,Observed efficacy (%) of L-glufosinate ammonium (150 g a.i./ha),"7 DAA, Table 15",50%
same,Observed efficacy (%) of L-glufosinate ammonium (150 g a.i./ha),"7 DAA, Table 18",70%
same,Observed efficacy (%) of L-glufosinate ammonium (150 g a.i./ha),"14 DAA, Table 8",25%
same,Observed efficacy (%) of L-glufosinate ammonium (150 g a.i./ha),"14 DAA, Table 9",25%
same,Observed efficacy (%) of L-glufosinate ammonium (150 g a.i./ha),"14 DAA, Table 10",25%
same,Observed efficacy (%) of L-glufosinate ammonium (150 g a.i./ha),"14 DAA, Table 11",30%
same,Observed efficacy (%) of L-glufosinate ammonium (150 g a.i./ha),"14 DAA, Table 12",30%
same,Observed efficacy (%) of L-glufosinate ammonium (150 g a.i./ha),"14 DAA, Table 13",30%
same,Observed efficacy (%) of L-glufosinate ammonium (150 g a.i./ha),"14 DAA, Table 15",40%
same,Observed efficacy (%) of L-glufosinate ammonium (150 g a.i./ha),"14 DAA, Table 18",65%
same,Observed efficacy (%) of L-glufosinate ammonium (150 g a.i./ha),"21 DAA, Table 8",20%
same,Observed efficacy (%) of L-glufosinate ammonium (150 g a.i./ha),"21 DAA, Table 9",15%
same,Observed efficacy (%) of L-glufosinate ammonium (150 g a.i./ha),"21 DAA, Table 10",20%
same,Observed efficacy (%) of L-glufosinate ammonium (150 g a.i./ha),"21 DAA, Table 12",20%
same,Observed efficacy (%) of L-glufosinate ammonium (150 g a.i./ha),"21 DAA, Table 15",38%
same,Observed efficacy (%) of L-glufosinate ammonium (150 g a.i./ha),"21 DAA, Table 16",35%
same,Observed efficacy (%) of L-glufosinate ammonium (150 g a.i./ha),"21 DAA, Table 17",25%
same,Observed efficacy (%) of L-glufosinate ammonium (150 g a.i./ha),"21 DAA, Table 18",60%
same,Observed efficacy (%) of L-glufosinate ammonium (150 g a.i./ha),"28 DAA, Table 8",10%
same,Observed efficacy (%) of L-glufosinate ammonium (150 g a.i./ha),"28 DAA, Table 9",5%
same,Observed efficacy (%) of L-glufosinate ammonium (150 g a.i./ha),"28 DAA, Table 12",10%
same,Observed efficacy (%) of L-glufosinate ammonium (150 g a.i./ha),"28 DAA, Table 14",40%
same,Observed efficacy (%) of L-glufosinate ammonium (150 g a.i./ha),"28 DAA, Table 15",30%
same,Observed efficacy (%) of L-glufosinate ammonium (150 g a.i./ha),"28 DAA, Table 17",20%
same,Observed efficacy (%) of L-glufosinate ammonium (150 g a.i./ha),"28 DAA, Table 18",50%
same,Observed efficacy (%) of L-glufosinate ammonium (150 g a.i./ha),"35 DAA, Table 15",20%
same,Observed efficacy (%) of L-glufosinate ammonium (150 g a.i./ha),"35 DAA, Table 17",18%
CCc1cccc(C)c1N(COC(C)C)C(=O)CCl [Propisochlor],Observed efficacy (%) of Propisochlor (540 g a.i./ha),"7 DAA, Table 13",0%
same,Observed efficacy (%) of Propisochlor (540 g a.i./ha),"14 DAA, Table 13",0%
Cn1nc(C(F)(F)F)c(CS(=O)(=O)C2=NOC(C)(C)C2)c1OC(F)F [Pyroxasulfone],Observed efficacy (%) of Pyroxasulfone (75 g a.i./ha),"7 DAA, Table 11",5%
same,Observed efficacy (%) of Pyroxasulfone (75 g a.i./ha),"14 DAA, Table 11",30%
CCc1cccc(C)c1N(C(=O)CCl)[C@@H](C)COC [S-metolachlor],Observed efficacy (%) of S-metolachlor (960 g a.i./ha),"7 DAA, Table 8",5%
same,Observed efficacy (%) of S-metolachlor (960 g a.i./ha),"14 DAA, Table 8",40%
same,Observed efficacy (%) of S-metolachlor (960 g a.i./ha),"21 DAA, Table 8",40%
same,Observed efficacy (%) of S-metolachlor (960 g a.i./ha),"28 DAA, Table 8",65%
"CCN(CC)C(=O)C(C)Oc1cccc2ccccc12 (centres unmarked) [napropamide, Napropamide]",Observed efficacy (%) of napropamide (675 g a.i./ha),"7 DAA, Table 12",5%
same,Observed efficacy (%) of napropamide (675 g a.i./ha),"14 DAA, Table 12",5%
same,Observed efficacy (%) of napropamide (675 g a.i./ha),"21 DAA, Table 12",5%
same,Observed efficacy (%) of napropamide (675 g a.i./ha),"28 DAA, Table 12",5%
"CCOC(=O)C(C)Oc1ccc(Oc2cnc3cc(Cl)ccc3n2)cc1 (centres unmarked) [quizalofop-ethyl, Quizalofop-ethyl]",Observed efficacy (%) of quizalofop-ethyl (25 g a.i./ha),"21 DAA, Table 16",95%
"C[C@@H](Oc1ccc(Oc2cnc3cc(Cl)ccc3n2)cc1)C(=O)OCC1CCCO1 (some centres unmarked) [quizalofop-p-tefuryl, Quizalofop-p-tefuryl]",Observed efficacy (%) of quizalofop-p-tefuryl (25 g a.i./ha),"21 DAA, Table 17",10%
same,Observed efficacy (%) of quizalofop-p-tefuryl (25 g a.i./ha),"28 DAA, Table 17",5%
same,Observed efficacy (%) of quizalofop-p-tefuryl (25 g a.i./ha),"35 DAA, Table 17",5%
"CS(=O)(=O)c1ccc(C(=O)C2C(=O)CCCC2=O)c(Cl)c1COCC(F)(F)F [tembotrione, Tembotrione]",Observed efficacy (%) of tembotrione (53 g a.i./ha),"3 DAA, Table 15",5%
same,Observed efficacy (%) of tembotrione (53 g a.i./ha),"7 DAA, Table 15",15%
same,Observed efficacy (%) of tembotrione (53 g a.i./ha),"14 DAA, Table 15",40%
same,Observed efficacy (%) of tembotrione (53 g a.i./ha),"21 DAA, Table 15",38%
same,Observed efficacy (%) of tembotrione (53 g a.i./ha),"28 DAA, Table 15",35%
same,Observed efficacy (%) of tembotrione (53 g a.i./ha),"35 DAA, Table 15",30%
